Reference: US20220380801A1, “TRIPARTITE SYSTEMS FOR PROTEIN DIMERIZATION AND METHODS OF USE” (priority 2019, published 2022)

test system: mutant HCV PR: simeprevir: PRSIM_23 complex; experiment: HTRF disruption of pre-formed mutant complexes; assay type: binding, Hepatitis C virus subtype 1a; details: mutation at position 136
Description: Methods of determining whether the competing small molecule is capable of binding to the target protein in the T-SM complex and displacing the small molecule from the T-SM complex include assays where a pre-formed tripartiate complex is generated and the ability of the binding member to bind the T-SM complex is measured (e.g. by a homogeneous time-resolved florescence (HTFR) binding assay) as increasing concentrations of the competing small molecule are added. A competing small molecule may be capable to displaying the small molecule from the T-SM complex if it is capable of inhibiting binding of inhibiting the binding member from binding the T-SM complex by at least 50%, by at least 75%, by at least 80%, by at least 85%, by at least 90%, or by at least 95% when measured using the HTFR binding assay. In some embodiments, the competing small molecule is asunaprevir, paritaprevir, vaniprevir, grazoprevir, danoprevir or glecaprevir. The binding member, target protein and small molecule using in the method may be as further defined herein in relation to other aspects of the disclosure.
To further characterise the mutations made to the HCV NS3/4A PR, we investigated whether the small molecules were able to disrupt pre-formed mutant HCV PR: simeprevir: PRSIM_23 complexes. […] The degree of inhibition is dependent on the specific mutation made.

Compound | inhibition of pre-formed mutant complex
C=C[C@@H]1C[C@]1(NC(=O)[C@@H]1C[C@@H](Oc2ncc(OC)c3ccc(Cl)cc23)CN1C(=O)[C@@H](NC(=O)OC(C)(C)C)C(C)(C)C)C(=O)NS(=O)(=O)C1CC1 [asunaprevir] | more pronounced inhibition
CC(C)(C)OC(=O)N[C@H]1CCCCC/C=C\[C@@H]2C[C@@]2(C(=O)NS(=O)(=O)C2CC2)NC(=O)[C@@H]2C[C@@H](OC(=O)N3Cc4cccc(F)c4C3)CN2C1=O [danoprevir] | more pronounced inhibition
CC(C)(C)[C@@H]1NC(=O)O[C@@H]2CCC[C@H]2OC/C=C/C(F)(F)c2nc3ccccc3nc2O[C@@H]2C[C@@H](C(=O)N[C@]3(C(=O)NS(=O)(=O)C4(C)CC4)C[C@H]3C(F)F)N(C2)C1=O [glecaprevir] | more pronounced inhibition
C=C[C@@H]1C[C@]1(NC(=O)[C@@H]1C[C@@H]2CN1C(=O)[C@H](C(C)(C)C)NC(=O)O[C@@H]1C[C@H]1CCCCCc1nc3ccc(OC)cc3nc1O2)C(=O)NS(=O)(=O)C1CC1.O [grazoprevir] | more pronounced inhibition
Cc1cnc(C(=O)N[C@H]2CCCCC/C=C\[C@@H]3C[C@@]3(C(=O)NS(=O)(=O)C3CC3)NC(=O)[C@@H]3C[C@@H](Oc4nc5ccccc5c5ccccc45)CN3C2=O)cn1 [paritaprevir] | more pronounced inhibition
CC[C@@H]1C[C@]1(NC(=O)[C@@H]1C[C@@H]2CN1C(=O)[C@H](C(C)(C)C)NC(=O)OCC(C)(C)CCCCc1cccc3c1CN(C3)C(=O)O2)C(=O)NS(=O)(=O)C1CC1 [vaniprevir] | more pronounced inhibition
